Experimental data as given in ChEMBL document CHEMBL5608113, “Targeting of CAF-induced therapy resistance in CRC organoid-stroma co-cultures” (2024).

How the values were obtained:
Type in all cases: functional, Homo sapiens
Conditions in all cases: Homo sapiens, read-out: Cell Viability; for viability at 10 µM: Concentration 10 uM; for viability at 1 µM: Concentration 1 uM
Colon cancer organoid [1] = experiment: Targeting of F14 CAF-induced therapy resistance in O14 CRC organoid-stroma co-culture. Cell viability is reported without Gefitinib.
Colon cancer organoid [2] = experiment: Targeting of F14 CAF-induced therapy resistance in O14 CRC organoid-stroma co-culture. Cell viability is reported with Gefitinib.
Colon cancer organoid [3] = experiment: Targeting of F14 CAF-induced therapy resistance in O23 CRC organoid-stroma co-culture. Cell viability is reported without Gefitinib.
Colon cancer organoid [4] = experiment: Targeting of F14 CAF-induced therapy resistance in O23 CRC organoid-stroma co-culture. Cell viability is reported with Gefitinib.
Colon cancer organoid [5] = experiment: Targeting of F14 CAF-induced therapy resistance in O23 CRC organoid-stroma co-culture. Cell viability is reported with SN-38.

| SMILES | viability at 10 µM (Colon cancer organoid [1]) | viability at 10 µM (Colon cancer organoid [2]) | viability at 10 µM (Colon cancer organoid [3]) | viability at 10 µM (Colon cancer organoid [4]) | viability at 10 µM (Colon cancer organoid [5]) | viability at 1 µM (Colon cancer organoid [1]) | viability at 1 µM (Colon cancer organoid [2]) | viability at 1 µM (Colon cancer organoid [3]) | viability at 1 µM (Colon cancer organoid [4]) | viability at 1 µM (Colon cancer organoid [5]) |
| --- | --- | --- | --- | --- | --- | --- | --- | --- | --- | --- |
| Cn1nc(C(=O)NCc2ccc(C(=O)O)cc2)cc1-c1ccc2[nH]ccc2c1 [BI 4395] | 95.3% | 62.1% | 124% | 52.8% | 77.4% |  |  |  |  |  |
| Cn1c(C2(NC(=O)c3ccc(NCC4CCCCC4)nc3)CCC2)nc2ccc(/C=C/C(=O)O)cc21 [BI 7656] | 101% | 45.1% | 131% | 77.7% | 69.9% |  |  |  |  |  |
| CS(=O)(=O)NCC[C@H](NC(=O)c1cncc2c1cnn2-c1ccc(F)cc1)c1ccnc(S(C)(=O)=O)c1 [BI 9307] |  |  |  |  |  | 105% | 37.4% | 114% | 116% | 70.6% |
| C[C@@]1(Cc2ccc(C#N)cc2)C(=O)N(c2cc(Cl)cc(Cl)c2)c2ncc(C(=O)NC3(c4nc(C5CCC5)no4)CC3)n21 [BI 9446] | 80.5% | 23% | 80.2% | 43% | 66.3% |  |  |  |  |  |
| CC(=O)N1CCC(c2ccc(C(=O)NC(=N)N)cc2C(F)(F)F)CC1 [BI 9627] | 102% | 42.9% | 109% | 53.2% | 106% |  |  |  |  |  |
| CCC(=O)N[C@H]1CC[C@@H](C(=O)N(C)c2ccc(-c3nc4ccccc4o3)cc2)C1 [BI 99179] | 48.5% | 44.8% | 168% | 82% | 124% |  |  |  |  |  |
| CCC(=O)N[C@@H]1CC[C@H](C(=O)N(C)c2ccc(-c3nc4ccccc4o3)cc2)C1 [BI 99990] | 150% | 37.6% | 154% | 69.7% | 100% |  |  |  |  |  |
| CS(=O)(=O)c1cc(C2(NC(=O)c3cncc4c3cnn4-c3ccc(F)cc3)CC2)ccn1 [BI 639667] |  |  |  |  |  | 126% | 39% | 135% | 107% | 94.7% |
| CCS(=O)(=O)c1cc2cc(C[C@](O)(CC(C)(C)c3ccc(F)cc3C(N)=O)C(F)(F)F)[nH]c2cn1 [BI 653048] | 100% | 42.7% | 161% | 68.4% | 110% |  |  |  |  |  |
| CN(C)C(=O)Cn1cc(-c2nc([C@@](C)(c3ccc(-c4cnc(N)nc4)cc3)C3CC3)no2)cn1 [BI 665915] |  |  |  |  |  | 102% | 56.8% | 181% | 79.9% | 85.2% |
| CC[C@H](CC(=O)O)n1c(=O)c2ncccc2n(Cc2cn(C)c3cc(C)cc(C)c23)c1=O [BI-1942] | 93.3% | 37.9% | 113% | 60.8% | 65% |  |  |  |  |  |
| CN(C)C(=O)c1sc2nc(N3CCC(S(C)(=O)=O)CC3)cc(C(F)(F)F)c2c1N [BI-5026] | 108% | 51% | 83.8% | 50% | 79.7% |  |  |  |  |  |
| CCC(F)(F)c1cc(N2CCC(S(C)(=O)=O)CC2)nc2sc(C(N)=O)c(N)c12 [BI-605906] | 125% | 50.7% | 102% | 53.3% | 62.6% |  |  |  |  |  |
| O=c1nc(-c2ccccn2)sc2ccccc12 [BTZO-1] | 117% | 69.4% | 186% | 83.1% | 120% |  |  |  |  |  |
| O=C1NC(c2ccccn2)Sc2ccccc21 (stereo not given) [BTZO-4] | 112% | 48.9% | 142% | 56.6% | 100% |  |  |  |  |  |
| C=CC(=O)Nc1ccc2[nH]c(=O)n(C3CCN(Cc4ccc(-c5nc6cc[nH]c(=O)c6cc5-c5ccccc5)cc4)CC3)c2c1 [Borussertib] | 28.5% | 14.3% | 9.17% | 7.88% | 10.6% |  |  |  |  |  |
